tested on: recombinant NL-Rluc virus; assay: Inhibition of HIV replication (NL-RLuc virus in MT-2 cells, luciferase readout); type: cell-based; conditions: 5 days of incubation, 10% FBS

Row | SMILES | EC50
1 | Cc1ccc2c(c1)-c1cccc(c1)-c1cc3nc(C)c([C@H](OC(C)(C)C)C(=O)O)c(n3n1)N1CCC(C)(CC1)OCCCC(C)C(C)O2 (single isomer, unassigned) [Example 95] | 36 nM

same assay, conditions: Human immunodeficiency virus 1, MT2, 120 h, 5 days of incubation, 10% FBS

Row | SMILES | EC50
2 | Cc1nc2cc3nn2c(c1[C@H](OC(C)(C)C)C(=O)O)N1CCC(C)(CC1)OCCCCCc1ccncc1-c1cccc-3c1 [Example 38, (2S)-2-(tert-Butoxy)-2-{4,27-dimethyl-26-oxa-1,5,7,8,17-pentaazahexacyclo[25.2.2.1^6,^9.1^10,^14.0^2,^7.0^15,^20]tritriaconta-2,4,6(33),8,10(32), 11, 13, 15 (20),16,18-decaen-3-yl}acetic acid] | 2 nM
3 | Cc1nc2cc3nn2c(c1[C@H](OC(C)(C)C)C(=O)O)N1CCC(C)(CC1)OCCC[C@@H](C)Oc1ccccc1-c1cccc-3c1 [Example 25, (2S)-2-(tert-Butoxy)-2-[(22R)-4,22,27-trimethyl-21,26-dioxa-1,5,7,8-tetraazahexacyclo[25.2.2.1^6,^9.1^10,^14.0^2,^7.0^15,^20]tritriaconta-2,4,6(33),8,10(32),11,13,15(20),16,18-decaen-3-yl]acetic acid] | 38 nM
4 | Cc1cc2c(cc1Cl)O[C@@H](C)CC=CCOC1(C)CCN(CC1)c1c([C@H](OC(C)(C)C)C(=O)O)c(C)nc3cc(nn13)-c1cccc-2c1 [Example 66, (2S)-2-(tert-Butoxy)-2-[(22S)-18-chloro-4,17,22,28-tetramethyl-21,27-dioxa-1,5,7,8-tetraazahexacyclo[26.2.2.1^6,^9.1^10,^14.0^2,^7.0^15,^20]tetratriaconta-2,4,6(34),8,10(33), 11, 13, 15(20),16,18,24-undecaen-3-yl]acetic acid] | 43 nM
5 | Cc1ccc2c(c1)-c1cccc(c1)-c1cc3nc(C)c([C@H](OC(C)(C)C)C(=O)O)c(n3n1)N1CCC(C)(CC1)OCC=C[C@H](C)O2 [Example 59, (2S)-2-(tert-Butoxy)-2-[(22S)-4,17,22,27-tetramethyl-21,26-dioxa-1,5,7,8-tetraazahexacyclo[25.2.2.1^6,^9.1^10,^14.0^2,^7.0^15,^20]tritriaconta-2,4,6(33),8,10(32),11,13,15(20),16,18,23-undecaen-3-yl]acetic acid] | 8 nM
6 | Cc1nc2cc3nn2c(c1[C@H](OC(C)(C)C)C(=O)O)N1CCC(C)(CC1)OCCCC[C@H](C)Oc1cc(Cl)ccc1-c1cccc-3c1 [Example 86, (2S)-2-(tert-Butoxy)-2-[(22S)-18-chloro-4,22,28-trimethyl-21,27-dioxa-1,5,7,8-tetraazahexacyclo[26.2.2.1^6,^9. 1^10,^14.0^2,^7.0^15,^20]tetratriaconta-2,4,6(34),8,10(33), 11, 13, 15 (20),16,18-decaen-3-yl]acetic acid] | 52 nM
7 | Cc1nc2cc3nn2c(c1[C@H](OC(C)(C)C)C(=O)O)N1CCC(C)(CC1)OCCCCCCc1ccccc1-c1cccc-3c1 [Example 30, (2S)-2-(tert-Butoxy)-2-{4,28-dimethyl-27-oxa-1,5,7,8-tetraazahexacyclo[26.2.2.1^6,^9.1^10,^14.0^2,^7.0^15,^20]tetratriaconta-2,4,6(34),8,10(33), 11, 13, 15(20),16,18-decaen-3-yl}acetic acid] | 27 nM
8 | Cc1ccc2c(c1)-c1cccc(c1)-c1cc3nc(C)c([C@H](OC(C)(C)C)C(=O)O)c(n3n1)N1CCC(C)(CC1)OCCC[C@H](C)O2 [Example 61, (2S)-2-(tert-Butoxy)-2-[(22S)-4,17,22,27-tetramethyl-21,26-dioxa-1,5,7,8-tetraazahexacyclo[25.2.2.1^6,^9.1^10,^14.0^2,^7.0^15,^20]tritriaconta-2,4,6(33),8,10(32),11,13,15(20),16,18-decaen-3-yl]acetic acid] | 10 nM
9 | Cc1nc2cc3nn2c(c1[C@H](OC(C)(C)C)C(=O)O)N1CCC(C)(CC1)OC/C=C/COc1ccccc1-c1cccc-3c1 [Example 20, (2S)-2-(tert-Butoxy)-2-[(23E)-4,27-dimethyl-21,26-dioxa-1,5,7,8-tetraazahexacyclo[25.2.2.1^6,^9.1^10,^14.0^2,^7.0^15,^20]tritriaconta-2,4,6(33),8,10(32),11,13,15(20),16,18,23-undecaen-3-yl]acetic acid] | 5 nM
10 | Cc1nc2cc3nn2c(c1[C@H](OC(C)(C)C)C(=O)O)-c1ccc2c(c1)[C@@H](CCCCOc1ccccc1-c1cccc-3c1)CCO2 (single isomer, unassigned) [Example 13] | 216 nM
11 | Cc1nc2cc3nn2c(c1[C@H](OC(C)(C)C)C(=O)O)N1CCC(C)(CC1)OCCCCCc1ncccc1-c1cccc-3c1 [Example 46, (2S)-2-(tert-Butoxy)-2-{4,27-dimethyl-26-oxa-1,5,7,8,19-pentaazahexacyclo[25.2.2.1^6,^9.1^10,^14.0^2,^7.0^15,^20]tritriaconta-2,4,6(33),8,10(32),11,13,15(20),16,18-decaen-3-yl}acetic acid] | 10 nM
12 | Cc1nc2cc3nn2c(c1[C@H](OC(C)(C)C)C(=O)O)N1CCC(C)(CCCCCCc2ccccc2-c2cccc-3c2)CC1 [Example 41, (2S)-2-(tert-Butoxy)-2-{4,27-dimethyl-1,5,7,8-tetraazahexacyclo[25.2.2.1^6,^9.1^10,^14.0^2,^7.0^15,^20]tritriaconta-2,4,6(33),8,10(32), 11,13,15(20),16,18-decaen-3-yl}acetic acid] | 180 nM
13 | Cc1nc2cc3nn2c(c1[C@H](OC(C)(C)C)C(=O)O)-c1ccc2c(c1Cl)N(CCCCOc1cccc(c1)-c1cccc-3c1)CCO2 [Example 3, (2S)-2-(tert-Butoxy)-2-{32-chloro-4-methyl-20,28-dioxa-5,7,8,25-tetraazaheptacyclo[23.6.2.1^6,^9.1^10,^14.1^15,^19.0^2,^7.0^29,^33]hexatriaconta-1(31), 2,4, 6(36), 8, 10(35), 11, 13, 15 (34), 16,18,29,32-tridecaen-3-yl}acetic acid] | 418 nM
14 | Cc1ccc2c(c1)-c1cccc(c1)-c1cc3nc(C)c([C@H](OC(C)(C)C)C(=O)O)c(n3n1)N1CCC(C)(CC1)OCCCC(C)CO2 (single isomer, unassigned) [Example 103] | 25 nM
15 | Cc1nc2cc3nn2c(c1[C@H](OC(C)(C)C)C(=O)O)N1CCC(C)(CC/C=C/CCc2ccncc2-c2cccc-3c2)CC1 [Example 50, (2S)-2-(tert-Butoxy)-2-[(23E)-4,27-dimethyl-1,5,7,8,17-pentaazahexacyclo[25.2.2.1^6,^9.1^10,^14.0^2,^7.0^15,^20]tritriaconta-2,4,6(33),8,10(32),11,13,15(20),16,18,23-undecaen-3-yl]acetic acid] | 6 nM
16 | Cc1ccc2c(c1F)-c1cccc(c1)-c1cc3nc(C)c([C@H](OC(C)(C)C)C(=O)O)c(n3n1)N1CCC(C)(CC1)OC/C=C\C[C@H](C)O2 [Example 69, (2S)-2-(tert-Butoxy)-2-[(22S,24Z)-16-fluoro-4,17,22,28-tetramethyl-21,27-dioxa-1,5,7,8-tetraazahexacyclo[26.2.2.1^6,^9.1^10,^14.0^2,^7.0^15,^20]tetratriaconta-2,4,6(34),8,10(33), 11, 13, 15 (20),16,18,24-undecaen-3-yl]acetic acid] | 21 nM
17 | Cc1nc2cc3nn2c(c1[C@H](OC(C)(C)C)C(=O)O)N1CCC(C)(CC1)OCC=C[C@@H](C)Oc1ccncc1-c1cccc-3c1 [Example 56, (2S)-2-(tert-Butoxy)-2-[(22R)-4,22,27-trimethyl-21,26-dioxa-1,5,7,8,17-pentaazahexacyclo[25.2.2.1^6,^9.1^10,^14.0^2,^7.0^15,^20]tritriaconta-2,4,6(33),8,10(32), 11, 13, 15 (20),16,18,23-undecaen-3-yl]acetic acid] | 351 nM

Source: patent publication US8906929B2, “Inhibitors of human immunodeficiency virus replication” (priority 2012, dated 2014)
